Data: patent publication US11661439B2, “Peptide hydrogels and use thereof” (The United States of America, as represented by the …, priority 2017, dated 2023)
Non-standard residues stand in square brackets, D forms with d. Residues, ends and D or L forms follow the SMILES beside them.

Experiments:
[1] = system: human dermal fibroblasts (HDFs); test: 2D cell culture of HDFs on gel surfaces; type: cell-based; details: for cell adhesion of HDFs on gel surface: Essential 8 Medium or serum-free DMEM
Description: 2D cell culture on peptide gels. Peptides were initially dissolved in water at 1 wt % on ice and mixed with an equal volume of ice-cold 2×HEPES buffer (50 mM HEPES, 300 mM NaCl, pH 7.4). The peptide solution (50 μL per well) was transferred to a non-tissue culture treated 96-well plates and incubated at 37° C. to initiate gelation. After 1 hour, HDFs (2×10^4 cells per 200 μL, per well) in serum-free DMEM, 10% FBS supplemented DMEM, or Essential 8 Medium (Thermo Fisher Scientific) were seeded on the peptide gels and cultured for 4 days. Bovine type I collagen gels (0.3 wt %, 50 μL per well) were prepared in 96-well plates following manufacturer's instructions.
Cell viability assay. Cell viability was evaluated by live and dead cell staining after 2D and 3D cell culture. Serum-free DMEM containing 1 μM calcein-AM and 2 μM ethidium homodimer-1 was added to the cells (200 μL per well for 2D culture and 500 μL each to the top and bottom of the gels for 3D culture). After incubation at 37° C. for 30 min, live and dead cells were visualized using EVOS FL Auto Cell Imaging System (Thermo Fisher Scientific). For the pseudo-colored composite image of varying heights of encapsulated cells, images of the live-stained cells were captured every 5 μm of height. Then Z-stack images for each 100 μm were flattened using the EVOS software, and the flattened images were pseudo-colored and merged using ImageJ.
Cell proliferation assay. A cell proliferation assay was performed using Cell Counting Kit-8 (CCK-8, Dojindo Molecular Technologies) for 2D and 3D cell culture. Serum-free DMEM containing 10% CCK-8 was added to the gels (200 μL per well for 2D culture; 500 μL to the top of the gels for 3D culture) and incubated for 2 hours at 37° C. Subsequently, media were transferred to 96-well plates (150 μL per well) and their absorbance measured at 450 nm relative to control viabilities from day 0 for 2D cell culture and day 1 for 3D cell culture. Experiments were performed in triplicate.
Cytoskeleton staining. For 2D cell culture, the peptide and collagen gels (70 μL) were prepared as described above on the glass bottom of 35 mm dishes (7 mm glass diameter, MatTek). HDFs in Essential 8 Medium (1.5×10^5 cells per 3 mL) were added to the dishes and incubated at 37° C. for 24 hours. Cells were fixed and permeabilized with 4% paraformaldehyde and 0.1% Triton X-100 in PBS for 15 min, and then blocked with 1% BSA in PBS. Cells were incubated with anti-vinculin antibody (hVIN-1, Sigma) for 1 hour at room temperature. Then, a goat anti-mouse IgG (H+L) cross-adsorbed secondary antibody, Rhodamine Red-X (2 μg mL^−1, Thermo Fisher Scientific), Alexa Fluor 488 phalloidin (5 units mL^−1, Thermo Fisher Scientific), and Hoechst 33342 (5 μg mL^−1, Invitrogen) in PBS were added to the dishes and incubated for 1 hour at room temperature. After washing, cells were visualized using an EVOS FL Auto Cell Imaging System.

[2] = Rheology of cell-encapsulating gels after 4 days of 3D culture; type: physicochemical; details: 1000% strain for 30 s every 10 min
Text: FIGS. 7A-7E. Three-dimensional culturing of HDFs. HDFs were 3D cultured with 0.5 wt % peptide hydrogels or 0.3 wt % collagen hydrogels with Essential 8 Medium. (7A) Live and dead cells were visualized on days 1, 4, and 7, using calcein AM and ethidium homodimer-1 staining, respectively (scale bar=100 μm). (7B) Cell growth was monitored by quantifying cell viability on days 1, 4, and 7. Data are represented as mean±SD of three independent replicates. (7C) A pseudo-colored composite of varying depths (0-500 μm) of Z-stacked images of live cells stained with calcein AM in 0.5% AcVES3-RGDV hydrogels on day 4 (scale bar=100 μm). […] (7D) Z-stack image of cytoskeleton organization in the hydrogels on day 4 with actin and nuclei (scale bar=100 μm) stained. (7E) Shear-thinned recovery of cells encapsulated in 0.5 wt % AcVES3-RGDV hydrogel after 3D culturing for 4 days. Hydrogels were shear-thinned at 1000% strain for 30 s (indicated by dashed line) every 10 min and allowed to recover by reducing the strain to 0.2%.
Rheology measurements of cell-encapsulating gels after 4 days of 3D cell culturing were performed using 8-mm stainless steel parallel plate geometry with a 0.5 mm gap height. A cell-encapsulating gel (100 μL) in a transwell insert (for 24 well plates, Corning) was transferred to the rheometer plate previously equilibrated at 37° C. and oil was placed around the sample. […]

## CC(=O)N[C@H](C(=O)N[C@@H](CCC(=O)O)C(=O)N[C@H](C(=O)N[C@@H](CO)C(=O)N[C@H](C(=O)N[C@@H](CO)C(=O)N[C@H](C(=O)N[C@@H](CCC(=O)O)C(=O)N[C@H](C(=O)N1CCC[C@@H]1C(=O)N1CCC[C@H]1C(=O)N[C@H](C(=O)N[C@@H](CCC(=O)O)C(=O)N[C@H](C(=O)N[C@@H](CO)C(=O)N[C@H](C(=O)N[C@@H](CCC(=O)O)C(=O)N[C@H](C(=O)N[C@@H](CCC(=O)O)C(=O)N[C@H](C(=O)NCC(=O)NCC(=O)NCC(=O)NCC(=O)N[C@@H](CCCNC(=N)N)C(=O)NCC(=O)N[C@@H](CC(=O)O)C(=O)N[C@H](C(N)=O)C(C)C)C(C)C)C(C)C)C(C)C)C(C)C)[C@@H](C)O)C(C)C)C(C)C)C(C)C)C(C)C)C(C)C [AcVES3-RGDV] (Ac-VEVSVSVEV[dP]PTEVSVEVEVGGGGRGDV-NH2)
[1]; Essential 8 Medium, up to day 4
  cell proliferation of HDFs, 2D culture: proliferated to a similar degree as cells on collagen gels
[1]; day 1, Essential 8 Medium
  cytoskeleton organization and focal adhesions: promoted organization of actin stress fibers and focal contacts
[1]; day 1
  cell adhesion of HDFs on gel surface: strongly attached and spread
[1]; day 4
  cell adhesion of HDFs on gel surface: remained adherent and viable
[2]
  storage moduli after multiple physical disruptions: constant
